The target in one assay is T1, mGluR5 receptor (Sus scrofa, UniProt I3LUI7).
T1 construct: 450 μg of protein from brain homogenate are incubated with 5 nM^3[H]-MPEP; from tissue; host or cells: pig brain hemispheres without medulla, cerebellum and pons
The experiment in a line: Affinity for the mGluR5 receptor: displacement of 3[H]-MPEP binding in pig brain homogenate. The note with it: 10 μM compound, 5 nM 3[H]-MPEP. The essentials: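 Pig brain homogenate (450 μg protein) incubated with 5 nM 3[H]-MPEP and test compound at 10 μM for 60 min at room temperature. Displacement of radioligand binding measured after filtration.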

Assay [1] addresses T2, 5-HT uptake (serotonin reuptake) (Rattus norvegicus, UniProt P31652).
T2 construct: from tissue; host or cells: rat medulla and pons synaptosomes (P2 fraction)
The experiment in a line: 5HT uptake inhibition in rat brain synaptosomes (medulla and pons), [3H]-5-HT. In kind it is biochemical. The note with it: conc. 10 μM. From the text: (§1) I. Method for Determining the Noradrenaline and 5HT Uptake Inhibition:
(§2) For in vitro studies, synaptosomes were freshly isolated from rat brain areas as described in the publication “The isolation of nerve endings from brain” by E. G. Gray and V. P. Whittaker, J. Anatomy 96, pages 79-88, 1962. The corresponding literature description is introduced hereby as reference and forms part of the disclosure.
(§3) The tissue (hypothalamus for determining the noradrenaline uptake inhibition and medulla and pons for determining the 5HT uptake inhibition) was homogenized in ice-cold 0.32 M sucrose (100 mg of tissue/1 ml) in a glass homogenizer with Teflon pestle using five full up and down strokes at 840 revolutions/minute. The homogenate was centrifuged at 1000 g and at 4° C. for 10 minutes. After subsequent centrifugation at 17 000 g for 55 minutes, the synaptosomes (P2 fraction) are obtained and were resuspended in 0.32 M […] (0.5 ml/100 mg of the original weight).
(§4) The respective uptake was measured in a 96-well microtiter plate. The volume was 250 μl and incubation took place at room temperature (approx. 20-25° C.) under an O2 atmosphere.
(§5) The incubation time was 7.5 minutes for [^3H]-NA and 5 minutes for [^3H]-5-HT. The 96 samples were then filtered through a Unifilter GF/B® microtiter plate (Packard) and washed with […] of incubated buffer using a “Brabdel MPXRI-96T Cell Harvester”. The Unifilter GF/B plate was dried at 55° C. for 1 h. The plate was then sealed with a Back Seal® (Packard) and 35 μl of scintillation fluid were added per well (Ultima Gold®, Packard). After sealing with a top Seal® (Packard), the radioactivity was determined, after equilibrium had been reached (about 5 h), in a “Trilux 1450 Microbeta” (Wallac).
(§6) The amount of protein employed in the above determination corresponded to the value disclosed in the literature, as described for example in “Protein measurement with the folin phenol reagent”, Lowry et al., J. Biol. Chem., 193, 265-275, 1951. A detailed description of the method can also be found in the literature, for example from M. Ch. Frink, H.-H. Hennies, W. Engelberger, M. Haurand and B. Wilffert (1996) Arzneim.-Forsch./Drug Res. 46 (III), 11, 1029-1036. The corresponding literature descriptions are hereby introduced as reference and form part of the disclosure.

The target in another assay is T3, NA transporter (Rattus norvegicus, UniProt Q63380).
T3 construct: from tissue; host or cells: rat hypothalamus synaptosomes (P2 fraction)
The experiment in a line: Noradrenaline (NA) uptake inhibition in rat brain synaptosomes (hypothalamus), [3H]-NA. To be noted: conc. 10 μM. In kind it is biochemical.
Text: as §1, §2, §3, §4, §5
The following characteristic data were found for the NA transporter:
as §6

Each structure is given as a SMILES string.

Among the data in patent US20080312301A1, “Substituted N-Benzo[D]Isoxazol-3-Yl-Amine Compounds as Inhibitors of Mglur5, Serotonin (5-Ht) and Noradrenaline Receptors, and Uses Thereof” (Gruenenthal GmbH, priority 2005, published 2008) are inhibition values, retold here.

T2 sequence (P31652 whole entry): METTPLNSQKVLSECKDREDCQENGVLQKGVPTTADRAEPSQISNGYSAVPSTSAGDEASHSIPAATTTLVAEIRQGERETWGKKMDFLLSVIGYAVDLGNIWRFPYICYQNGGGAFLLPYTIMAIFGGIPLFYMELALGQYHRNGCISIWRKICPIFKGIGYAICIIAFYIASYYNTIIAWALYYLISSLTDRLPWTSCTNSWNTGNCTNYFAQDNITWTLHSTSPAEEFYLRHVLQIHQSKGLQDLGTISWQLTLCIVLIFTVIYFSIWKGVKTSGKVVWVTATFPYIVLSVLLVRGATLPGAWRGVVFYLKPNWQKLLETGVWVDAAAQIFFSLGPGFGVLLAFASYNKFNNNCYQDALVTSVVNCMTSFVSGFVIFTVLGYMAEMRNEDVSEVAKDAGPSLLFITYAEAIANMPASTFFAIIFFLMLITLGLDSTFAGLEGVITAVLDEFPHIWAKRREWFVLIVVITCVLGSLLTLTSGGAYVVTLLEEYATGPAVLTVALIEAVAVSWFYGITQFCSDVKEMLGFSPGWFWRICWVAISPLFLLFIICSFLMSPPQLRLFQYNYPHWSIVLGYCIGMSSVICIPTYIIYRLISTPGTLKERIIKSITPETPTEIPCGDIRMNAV
T1 sequence (I3LUI7 19-1212): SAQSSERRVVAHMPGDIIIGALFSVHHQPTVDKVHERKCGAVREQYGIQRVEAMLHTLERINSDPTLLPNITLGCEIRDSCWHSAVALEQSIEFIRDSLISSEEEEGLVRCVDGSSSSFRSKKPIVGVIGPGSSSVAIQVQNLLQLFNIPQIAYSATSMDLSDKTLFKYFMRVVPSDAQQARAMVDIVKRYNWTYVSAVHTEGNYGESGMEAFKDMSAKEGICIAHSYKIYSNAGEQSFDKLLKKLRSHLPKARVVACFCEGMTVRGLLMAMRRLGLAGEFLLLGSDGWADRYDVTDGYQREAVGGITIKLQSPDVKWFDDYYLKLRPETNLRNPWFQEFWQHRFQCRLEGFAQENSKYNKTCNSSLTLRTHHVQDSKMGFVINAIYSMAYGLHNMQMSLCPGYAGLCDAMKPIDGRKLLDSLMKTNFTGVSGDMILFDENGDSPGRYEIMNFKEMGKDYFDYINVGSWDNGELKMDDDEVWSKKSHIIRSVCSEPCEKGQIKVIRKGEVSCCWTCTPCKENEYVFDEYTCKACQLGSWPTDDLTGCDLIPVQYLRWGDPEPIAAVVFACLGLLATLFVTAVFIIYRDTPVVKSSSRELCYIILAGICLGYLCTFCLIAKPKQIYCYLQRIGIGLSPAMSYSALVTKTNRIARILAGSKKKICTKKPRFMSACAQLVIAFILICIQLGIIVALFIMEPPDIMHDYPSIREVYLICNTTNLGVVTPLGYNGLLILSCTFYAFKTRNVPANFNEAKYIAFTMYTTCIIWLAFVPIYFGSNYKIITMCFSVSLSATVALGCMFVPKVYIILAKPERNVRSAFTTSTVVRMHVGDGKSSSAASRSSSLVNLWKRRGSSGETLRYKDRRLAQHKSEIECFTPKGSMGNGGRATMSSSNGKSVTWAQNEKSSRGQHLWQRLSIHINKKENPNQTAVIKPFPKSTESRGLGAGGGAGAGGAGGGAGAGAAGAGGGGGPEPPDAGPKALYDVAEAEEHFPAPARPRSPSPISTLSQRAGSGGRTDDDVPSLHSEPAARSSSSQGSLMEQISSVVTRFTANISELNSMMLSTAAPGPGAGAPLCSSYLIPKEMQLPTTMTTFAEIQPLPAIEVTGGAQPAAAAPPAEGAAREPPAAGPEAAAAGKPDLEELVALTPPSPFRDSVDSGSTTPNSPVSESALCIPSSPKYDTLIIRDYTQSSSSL
T3 sequence (Q63380 1-617): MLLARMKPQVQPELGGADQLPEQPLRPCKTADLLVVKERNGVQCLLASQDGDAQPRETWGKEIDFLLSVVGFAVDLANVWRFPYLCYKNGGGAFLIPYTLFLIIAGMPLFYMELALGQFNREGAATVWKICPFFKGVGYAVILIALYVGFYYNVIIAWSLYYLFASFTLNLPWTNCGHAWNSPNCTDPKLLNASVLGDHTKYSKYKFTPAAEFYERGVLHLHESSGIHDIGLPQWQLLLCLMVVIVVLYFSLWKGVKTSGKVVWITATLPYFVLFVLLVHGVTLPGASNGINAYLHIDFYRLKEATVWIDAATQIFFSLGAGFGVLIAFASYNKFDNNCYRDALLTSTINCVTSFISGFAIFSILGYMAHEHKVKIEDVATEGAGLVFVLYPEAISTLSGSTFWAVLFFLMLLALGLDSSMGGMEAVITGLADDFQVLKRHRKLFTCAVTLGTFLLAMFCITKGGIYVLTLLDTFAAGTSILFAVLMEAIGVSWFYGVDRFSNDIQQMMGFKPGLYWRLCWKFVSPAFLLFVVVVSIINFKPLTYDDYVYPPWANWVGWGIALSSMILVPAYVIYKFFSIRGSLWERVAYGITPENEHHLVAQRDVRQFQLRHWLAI

Broadly, the inhibition is the change of the read-out against control, counted positive when it falls. A high value points to strong suppression. With `Cc1ccc2onc(NC(=O)c3cccc(F)c3)c2c1` [Example 32, 3-fluoro-N-(5-methylbenzo[d]isoxazol-3-yl)benzamide], the inhibition at 10 µM turned out to be 40.1% on mGluR5 receptor and 89% in assay [1].

With `COc1ccccc1C(=O)Nc1noc2cccc(OCC(F)(F)F)c12` [Example 39, 2-methoxy-N-[4-(2,2,2-trifluoroethoxy)benzo[d]isoxazol-3-yl]benzamide], the figures for the inhibition at 10 µM (on mGluR5 receptor; in assay [1]) were 30.5% and 82%, respectively.

Regarding `O=C(Nc1noc2cc(Cl)ccc12)c1cccc(C(F)(F)F)c1F` [Example 19, N-(6-chlorobenzo[d]isoxazol-3-yl)-2-fluoro-3-trifluoromethylbenzamide], the inhibition at 10 µM was determined as 63% at NA transporter and 77% in assay [1].
